Measurements from US20240158446A1, “CYCLIC COMPOUND HAVING SELECTIVE INHIBITORY ACTION ON KRAS OVER HRAS AND NRAS” (CHUGAI SEIYAKU KABUSHIKI KAISHA, priority 2021, published 2024).
Like-named read-outs stand apart in the source and are kept apart here.

Experiments:
[1] = target: GDP-bound KRAS wild-type protein (Homo sapiens, UniProt P01116); test: Binding to KRAS by surface plasmon resonance (SPR), Single Cycle Kinetics; conditions: GDP-bound KRAS wild-type protein, read-out: KRAS KD
[2] = target: GDP-bound NRAS wild-type protein (Homo sapiens, UniProt P01111); test: Binding to NRAS by surface plasmon resonance (SPR), Single Cycle Kinetics; conditions: for NRAS/KRAS (ratio of KD value for NRAS to KD value for KRAS): GDP-bound NRAS wild-type protein vs GDP-bound KRAS wild-type protein; for NRAS/KRAS (ratio of KD value with respect to GDP-bound NRAS wild-type protein to KD value with respect to KRAS): SPR KD ratio NRAS/KRAS, class symbols
[3] = target: GDP-bound HRAS wild-type protein (Homo sapiens, UniProt P01112); test: Binding to HRAS by surface plasmon resonance (SPR), Single Cycle Kinetics; conditions: for HRAS/KRAS (ratio of KD value for HRAS to KD value for KRAS): GDP-bound HRAS wild-type protein vs GDP-bound KRAS wild-type protein; for HRAS/KRAS (ratio of KD value with respect to GDP-bound HRAS wild-type protein to KD value with respect to KRAS): SPR KD ratio HRAS/KRAS, class symbols
[4] = system: human lung cancer strain NCI-H441;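 further: cell proliferation inhibition after four days measured by CellTiter-Glo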
[5] = SPR, Single Cycle Kinetics, 1:1 binding model
[6] = SPR Single Cycle Kinetics, 1:1 binding model

Chain of GDP-bound NRAS wild-type protein (P01111 whole entry): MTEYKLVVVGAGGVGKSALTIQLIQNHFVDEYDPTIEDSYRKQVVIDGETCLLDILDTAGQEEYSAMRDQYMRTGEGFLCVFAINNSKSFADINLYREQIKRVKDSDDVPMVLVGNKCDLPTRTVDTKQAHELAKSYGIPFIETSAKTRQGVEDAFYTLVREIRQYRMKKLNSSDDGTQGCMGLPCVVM
Chain of GDP-bound HRAS wild-type protein (P01112 whole entry): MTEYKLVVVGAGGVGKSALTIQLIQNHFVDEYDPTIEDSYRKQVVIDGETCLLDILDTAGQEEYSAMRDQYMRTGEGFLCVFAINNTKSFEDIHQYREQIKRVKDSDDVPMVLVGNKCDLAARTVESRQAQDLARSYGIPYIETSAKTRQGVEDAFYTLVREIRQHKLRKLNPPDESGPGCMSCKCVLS
Chain of GDP-bound KRAS wild-type protein (P01116 whole entry): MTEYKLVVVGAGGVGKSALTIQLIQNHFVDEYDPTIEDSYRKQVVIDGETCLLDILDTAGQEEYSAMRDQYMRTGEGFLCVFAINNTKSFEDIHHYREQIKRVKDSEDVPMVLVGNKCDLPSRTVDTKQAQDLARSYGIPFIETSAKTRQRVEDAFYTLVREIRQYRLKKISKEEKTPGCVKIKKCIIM

SMILES | Kd ([1]; SPR, Single Cycle Kinetics) | NRAS/KRAS (ratio of KD value for NRAS to KD value for KRAS) ([2]; SPR) | HRAS/KRAS (ratio of KD value for HRAS to KD value for KRAS) ([3]; SPR) | IC50 [4] | Kd [1, 6] | NRAS/KRAS (ratio of KD value with respect to GDP-bound NRAS wild-type protein to KD value with respect to KRAS) [2] | HRAS/KRAS (ratio of KD value with respect to GDP-bound HRAS wild-type protein to KD value with respect to KRAS) [3] | further results
CCO[C@@H]1C[C@H]2C(=O)NC3(CCC3)C(=O)N(C)[C@@H](C3CCCC3)C(=O)N(C)[C@H](C(=O)N(C)C)CC(=O)N(C)[C@@H](Cc3ccc(F)c(F)c3)C(=O)N[C@@H]([C@@H](C)CC)C(=O)N(C)CC(=O)N(C)[C@H]3CCCCCN(C3=O)[C@@H](Cc3ccc(C(F)(F)F)cc3)C(=O)N(C)CC(=O)N[C@@H](CCc3cc(F)c(C(F)(F)F)c(F)c3)C(=O)N2C1 [PP0937] | 1 nM | B (a compound having 3 or more and less than 10 is denoted as B) | B (a compound having 3 or more and less than 10 is denoted as B) | 39 nM | – | – | – | –
CCC[C@H]1C(=O)N[C@@H](CC(C)C)C(=O)N(C2CC2)CC(=O)N(C)[C@H]2C/C=C\CCN(C2=O)[C@@H](Cc2ccc(C)cc2)C(=O)N(C)CC(=O)N[C@@H](CCc2ccc(C(F)(F)F)c(OC)c2)C(=O)N2C[C@H](OCC)C[C@H]2C(=O)NC2(CC(C)(C)C2)C(=O)N(C)[C@@H](C2CCCC2)C(=O)N(C)[C@H](C(=O)N(C)C)CC(=O)N1C [PP2510] | 3.9 nM | A (a compound having 10 or more and less than 20 is denoted as A) | B (a compound having 3 or more and less than 10 is denoted as B) | 180 nM | – | – | – | –
CCO[C@@H]1C[C@H]2C(=O)NC3(CCC3)C(=O)N(C)[C@@H](C3CCCC3)C(=O)N(C)[C@H](C(=O)N(C)C)CC(=O)N(C)[C@@H](CSC)C(=O)N[C@@H]([C@@H](C)CC)C(=O)N(C)CC(=O)N(C)[C@H]3C/C=C\CCN(C3=O)[C@@H](CC3CCCCC3)C(=O)N(C)CC(=O)N[C@@H](CCc3cc(F)c(C(F)(F)F)c(F)c3)C(=O)N2C1 [PP1463, (2S,8S,12R,14S,20S,23S,27R,30S,36S,38Z)-2-(cyclohexylmethyl)-20-cyclopentyl-8-[2-[3,5-difluoro-4-(trifluoromethyl)phenyl]ethyl]-12-ethoxy-N,N,4,19,22,26,32,35-octamethyl-30-[(1S)-1-methylpropyl]-27-(methylsulfanylmethyl)-3,6,9,15,18,21,25,28,31,34,42-undecaoxo-spiro[1,4,7,10,16,19,22,26,29,32,35-undecazatricyclo[34.5.1.0^10,14]dotetracont-38-ene-17,1′-cyclobutane]-23-carboxamide] | – | – | – | 44.5 nM | – | – | – | Kd [1, 5]: 0.13 nM; NRAS/KRAS (ratio of KD value for NRAS to KD value for KRAS) ([2]; SPR, KD ratio class): A (a compound having 10 or more and less than 20 is denoted as A); HRAS/KRAS (ratio of KD value for HRAS to KD value for KRAS) ([3]; SPR, KD ratio class): A (a compound having 10 or more and less than 20 is denoted as A)
CCC[C@H]1C(=O)N[C@@H]([C@@H](C)CC)C(=O)N(C)CC(=O)N(C)[C@H]2C/C=C\CCN(C2=O)[C@@H](Cc2ccc(C)cc2)C(=O)N(C)CC(=O)N[C@@H](CCc2ccc(C(F)(F)F)c(OC)c2)C(=O)N2C[C@H](OCC)C[C@H]2C(=O)NC2(CC(C)(C)C2)C(=O)N(C)[C@@H](CC(C)(C)C)C(=O)N(C)[C@H](C(=O)N(C)C)CC(=O)N1C [PP2710] | – | – | – | 5.3 nM | 0.1 nM | B (a compound having 3 or more and less than 10 is denoted as B) | B (a compound having 3 or more and less than 10 is denoted as B) | –
CCO[C@@H]1C[C@H]2C(=O)NC3(CC(C)(C)C3)C(=O)N(C)[C@@H](C(CC)CC)C(=O)N(C)[C@H](C(=O)N(C)C)CC(=O)N(C)[C@@H](COC)C(=O)N[C@@H]([C@@H](C)CC)C(=O)N(C3CC3)CC(=O)N(C)[C@H]3C/C=C\CCN(C3=O)[C@@H](CC3CCC(F)(F)CC3)C(=O)N(C)CC(=O)N[C@@H](CCc3cc(F)c(C(F)(F)F)c(F)c3)C(=O)N2C1 [PP2568] | – | – | – | 23.4 nM | 1.2 nM | A (a compound having 10 or more and less than 20 is denoted as A) | B (a compound having 3 or more and less than 10 is denoted as B) | –
CC[C@H](C)[C@@H]1NC(=O)[C@H](COC)N(C)C(=O)C[C@@H](C(=O)N(C)C)N(C)C(=O)[C@H](C2CCCC2)N(C)C(=O)C2(CC(C)(C)C2)NC(=O)[C@@H]2C[C@@H](OC3CCCC3)CN2C(=O)[C@H](CCc2ccc(Cl)c(Cl)c2)NC(=O)CN(C)C(=O)[C@H](Cc2ccc(C)cc2)N2CC/C=C\C[C@@H](C2=O)N(C)C(=O)CN(C2CC2)C1=O [PP2628] | – | – | – | 67.9 nM | 0.9 nM | A (a compound having 10 or more and less than 20 is denoted as A) | A (a compound having 10 or more and less than 20 is denoted as A) | –
CCCOC[C@H]1C(=O)N[C@@H]([C@@H](C)CC)C(=O)N(C)CC(=O)N(C)[C@H]2C/C=C\CCN(C2=O)[C@@H](CC2CCC(F)(F)CC2)C(=O)N(C)CC(=O)N[C@@H](CCc2ccc(C(F)(F)F)c(Cl)c2)C(=O)N2C[C@H](OCC)C[C@H]2C(=O)NC2(CC(C)(C)C2)C(=O)N(C)[C@@H](C(CC)CC)C(=O)N(C)[C@H](C(=O)N(C)C)CC(=O)N1C [PP2484] | 1 nM | A (a compound having 10 or more and less than 20 is denoted as A) | A (a compound having 10 or more and less than 20 is denoted as A) | 74.3 nM | – | – | – | –
CCO[C@@H]1C[C@H]2C(=O)NC3(CCC3)C(=O)N(C)[C@@H](C3CCCC3)C(=O)N(C)[C@H](C(=O)N3CCOCC3)CC(=O)N(C)[C@@H](CC(C)C)C(=O)N[C@@H]([C@@H](C)CC)C(=O)N3CC[C@H]3C(=O)N(C)[C@H]3C[C@@H](C)[C@@H](C)CN(C3=O)[C@@H](Cc3ccc(C(F)(F)F)cc3)C(=O)N(C)CC(=O)N[C@@H](CCc3ccc(C(F)(F)F)c(Cl)c3)C(=O)N2C1 [PP1361] | – | – | – | 6.2 nM | – | – | – | Kd [1, 5]: 0.15 nM; NRAS/KRAS (ratio of KD value for NRAS to KD value for KRAS) ([2]; SPR, KD ratio class): A (a compound having 10 or more and less than 20 is denoted as A); HRAS/KRAS (ratio of KD value for HRAS to KD value for KRAS) ([3]; SPR, KD ratio class): B (a compound having 3 or more and less than 10 is denoted as B)
CCO[C@@H]1C[C@H]2C(=O)NC3(CC(C)(C)C3)C(=O)N(C)[C@@H](C3CCCC3)C(=O)N(C)[C@H](C(=O)N3CCCCC3)CC(=O)N(C)[C@@H](COC)C(=O)N[C@@H]([C@@H](C)CC)C(=O)N(C3CC3)CC(=O)N(C)[C@H]3C/C=C\CCN(C3=O)[C@@H](Cc3ccc(C(F)(F)F)cc3)C(=O)N(C)CC(=O)N[C@@H](CCc3cc(F)c(C(F)(F)F)c(F)c3)C(=O)N2C1 [PP2666] | – | – | – | 28.6 nM | 0.72 nM | AA (a compound having 20 or more is denoted as AA) | AA (a compound having 20 or more is denoted as AA) | –
CC[C@H](C)[C@@H]1NC(=O)[C@@H]2CCCCCc3ccc(cc3)C[C@@H](C(=O)N(C)CC(=O)N[C@@H](CCc3ccc(C(F)(F)F)c(OC)c3)C(=O)N3C[C@H](OC4CCC4)C[C@H]3C(=O)NC3(CC(C)(C)C3)C(=O)N(C)[C@@H](C3CCCC3)C(=O)N(C)[C@H](C(=O)N(C)C)CC(=O)N2C)N2CC/C=C\C[C@@H](C2=O)N(C)C(=O)CN(C)C1=O [PP3073] | 0.025 nM | A (a compound having 10 or more and less than 20 is denoted as A) | A (a compound having 10 or more and less than 20 is denoted as A) | – | – | – | – | ratio of the KD value with respect to GDP-bound NRAS wild-type protein to the KD value with respect to KRAS ([2]; SPR, KD(NRAS)/KD(KRAS)): A (a compound having 10 or more and less than 20 is denoted as A); ratio of the KD value with respect to GDP-bound HRAS wild-type protein to the KD value with respect to KRAS ([3]; SPR, KD(HRAS)/KD(KRAS)): A (a compound having 10 or more and less than 20 is denoted as A); IC50 ([4]; read-out: NCI-H441 cell proliferation inhibitory activity, 50% proliferation inhibitory concentration (IC50 value), NCI-H441, four days, CellTiter-Glo): 1.9 nM
CCCOC[C@H]1C(=O)N[C@@H]([C@@H](C)CC)C(=O)N(C)CC(=O)N(C)[C@H]2C/C=C\CCN(C2=O)[C@@H](Cc2ccc(C(F)(F)F)cc2)C(=O)N(C)CC(=O)N[C@@H](CCc2cc(F)c(C(F)(F)F)c(F)c2)C(=O)N2C[C@H](OCC)C[C@H]2C(=O)NC2(CCC2)C(=O)N(C)[C@@H](C2CCCC2)C(=O)N(C)[C@H](C(=O)N(C)C)CC(=O)N1C [PP1395, (2S,8S,12R,14S,20S,23S,27S,30S,36S,38Z)-20-cyclopentyl-8-[2-[3,5-difluoro-4-(trifluoromethyl)phenyl]ethyl]-12-ethoxy-N,N,4,19,22,26,32,35-octamethyl-30-[(1S)-1-methylpropyl]-3,6,9,15,18,21,25,28,31,34,42-undecaoxo-27-(propoxymethyl)-2-[[4-(trifluoromethyl)phenyl]methyl]spiro[1,4,7,10,16,19,22,26,29,32,35-undecazatricyclo[34.5.1.0^10,14]dotetracont-38-ene-17,1′-cyclobutane]-23-carboxamide] | – | – | – | 3.8 nM | – | – | – | Kd [1, 5]: 0.063 nM; NRAS/KRAS (ratio of KD value for NRAS to KD value for KRAS) ([2]; SPR, KD ratio class): A (a compound having 10 or more and less than 20 is denoted as A); HRAS/KRAS (ratio of KD value for HRAS to KD value for KRAS) ([3]; SPR, KD ratio class): B (a compound having 3 or more and less than 10 is denoted as B)
